Source: the RepoRT retention time repository (doi:10.1038/s41586-021-03707-9)

assay: Waters ACQUITY UPLC BEH C18, 100 × 2.1 mm, 1.7 µm, 40 °C, 0.28 mL/min, estimated dead time 0.63 min; A: water + 6.5 mM ammonium hydroxide; B: methanol + 6.5 mM ammonium hydroxide; gradient (min/%B) 0/0.5 4/70 4.5/98 5.4/98; settings: stereoisomer not certain

Question: Which LC retention time does the source give for `CCC(CO)C(=O)O` (stereo not drawn) here?
Answer: 0.857 min

Question: For `Cc1cc(C(=O)O)ccc1O`, which LC retention time is on record?
Answer: 3.54 min

Question: For `C[N+](C)(C)CC(O)CC(=O)[O-]` (stereo not drawn), which LC retention time is on record?
Answer: 1.23 min

Question: Which LC retention time does the source give for `NCCCCC(N)C(=O)O` (stereo not drawn) here?
Answer: 0.794 min

Question: For `C[N+](C)(C)CCCCC(N)C(=O)[O-]` (stereo not drawn), which LC retention time is on record?
Answer: 0.837 min

Question: For `NCCC(=O)NC(Cc1cnc[nH]1)C(=O)O` (stereo not drawn), which LC retention time is on record?
Answer: 0.9 min

Question: Which LC retention time does the source give for `CC(C)(COP(=O)(O)OP(=O)(O)OCC1OC(n2cnc3c(N)ncnc32)C(O)C1OP(=O)(O)O)C(O)C(=O)NCCC(=O)NCCS` (stereo not drawn) here?
Answer: 0.853 min

Question: For `NC1C(O)OC(CO)C(O)C1O` (stereo not drawn), which LC retention time is on record?
Answer: 0.802 min

Question: For `OCC1OC(OCC2OC(O)(CO)C(O)C2O)C(O)C(O)C1O` (stereo not drawn), which LC retention time is on record?
Answer: 0.892 min

Question: With `O=C(O)CNC(=O)c1cccc(O)c1` as the compound, how does the LC retention time read?
Answer: 1.91 min

Question: For `CC(=O)S`, which LC retention time is on record?
Answer: 2.35 min

Question: Which LC retention time does the source give for `O=CC(O)C(O)C(O)CO` (stereo not drawn) here?
Answer: 0.839 min

Question: Which LC retention time does the source give for `COC(=O)Cc1ccc(O)cc1` here?
Answer: 4.14 min

Question: For `NCCC(=O)O`, which LC retention time is on record?
Answer: 0.761 min

Question: Which LC retention time does the source give for `Oc1cccc2cccnc12` here?
Answer: 4.19 min

Question: With `CC=C(C)C(=O)O` as the compound, how does the LC retention time read?
Answer: 1.61 min

Question: With `CN=C(NC#N)NCCSCc1nc[nH]c1C` as the compound, how does the LC retention time read?
Answer: 3.63 min

Question: With `Cn1cncc1CC(N)C(=O)O` (stereo not drawn) as the compound, how does the LC retention time read?
Answer: 0.969 min

Question: Which LC retention time does the source give for `CC(C)Cc1ccc(C(C)C(=O)O)cc1` (stereo not drawn) here?
Answer: 5.27 min

Question: Which LC retention time does the source give for `COc1cc(CC(=O)O)ccc1OS(=O)(=O)O` here?
Answer: 0.848 min

Question: With `O=c1[nH]c(=O)c2[nH]c(=O)[nH]c2[nH]1` as the compound, how does the LC retention time read?
Answer: 0.828 min

Question: For `Cc1ccc(O)c([N+](=O)[O-])c1`, which LC retention time is on record?
Answer: 4.33 min

Question: With `O=C(O)C(=O)c1ccccc1` as the compound, how does the LC retention time read?
Answer: 2.26 min

Question: With `O=C(O)CCCCCCCCCCCO` as the compound, how does the LC retention time read?
Answer: 4.86 min

Question: Which LC retention time does the source give for `NCC1CCC(C(=O)O)CC1` (stereo not drawn) here?
Answer: 0.843 min

Question: Which LC retention time does the source give for `O=CC(O)C1OC(=O)C(O)C1O` (stereo not drawn) here?
Answer: 0.884 min

Question: For `O=S(=O)(O)Oc1c[nH]c2ccccc12`, which LC retention time is on record?
Answer: 2.59 min

Question: For `O=C(O)c1ccc2ccccc2c1O`, which LC retention time is on record?
Answer: 4.3 min

Question: Which LC retention time does the source give for `O=C(O)CCCCCCC(=O)O` here?
Answer: 0.826 min

Question: With `O=C(O)c1c(O)cccc1O` as the compound, how does the LC retention time read?
Answer: 2.9 min

Question: For `Cc1ccc(OC2OC(C(=O)O)C(O)C(O)C2O)cc1` (stereo not drawn), which LC retention time is on record?
Answer: 2.77 min

Question: For `O=C(O)CCCc1ccccc1`, which LC retention time is on record?
Answer: 3.86 min

Question: Which LC retention time does the source give for `O=CCc1c[nH]c2ccccc12` here?
Answer: 4.4 min

Question: With `NC(=O)C1=CN(C2OC(COP(=O)(O)OP(=O)(O)OCC3OC(n4cnc5c(N)ncnc54)C(O)C3O)C(O)C2O)C=CC1` (stereo not drawn) as the compound, how does the LC retention time read?
Answer: 0.901 min

Question: For `CC(=O)NC(CS)C(=O)O` (stereo not drawn), which LC retention time is on record?
Answer: 1.15 min

Question: Which LC retention time does the source give for `COc1ccc(CC(=O)O)cc1OC` here?
Answer: 2.66 min

Question: With `NC(CO)Cc1cnc[nH]1` (stereo not drawn) as the compound, how does the LC retention time read?
Answer: 1.28 min

Question: For `NC(CS)C(=O)NCC(=O)O` (stereo not drawn), which LC retention time is on record?
Answer: 0.946 min

Question: Which LC retention time does the source give for `Cc1ccccc1C(=O)O` here?
Answer: 2.21 min

Question: With `O=C(O)CCCCC1CCSS1` (stereo not drawn) as the compound, how does the LC retention time read?
Answer: 3.95 min

Question: Which LC retention time does the source give for `O=C1OC(C(O)CO)C(=O)C1=O` (stereo not drawn) here?
Answer: 0.862 min

Question: With `Oc1ccccc1O` as the compound, how does the LC retention time read?
Answer: 2.93 min

Question: With `CCCCC(=O)N(Cc1ccc(-c2ccccc2-c2nn[nH]n2)cc1)C(C(=O)O)C(C)C` (stereo not drawn) as the compound, how does the LC retention time read?
Answer: 4.48 min

Question: Which LC retention time does the source give for `CC=CC(=O)O` here?
Answer: 0.869 min

assay: RP, Waters ACQUITY UPLC HSS C18, 100 × 2.1 mm, 1.7 µm, 40 °C, 0.35 mL/min, estimated dead time 0.63 min; A: water + 0.1% formic acid; B: methanol + 0.1% formic acid; gradient (min/%B) 0/0.5 4/70 4.5/98 5.4/98; settings: stereoisomer not certain

Question: Which LC retention time does the source give for `O=C(C=Cc1ccc(O)c(O)c1)OC1CC(O)(C(=O)O)CC(O)C1O` (stereo not drawn) here?
Answer: 3.03 min

Question: With `NC(N)=NC(CC(=O)O)C(=O)O` (stereo not drawn) as the compound, how does the LC retention time read?
Answer: 0.802 min

Question: With `Nc1ccn(C2CC(O)C(COP(=O)(O)O)O2)c(=O)n1` (stereo not drawn) as the compound, how does the LC retention time read?
Answer: 1.1 min

Question: With `Nc1ccccc1O` as the compound, how does the LC retention time read?
Answer: 1.42 min

Question: For `CC(C)CC(=O)NCC(=O)O`, which LC retention time is on record?
Answer: 3.07 min

Question: For `CC12CCC(=O)C=C1CCC1C2CCC2(C)C1CCC2(O)C(=O)CO` (stereo not drawn), which LC retention time is on record?
Answer: 5.33 min

Question: Which LC retention time does the source give for `O=P(O)(O)OCC1OC(O)C(O)C1O` (stereo not drawn) here?
Answer: 0.778 min

Question: With `NC(CS(=O)(=O)O)C(=O)O` (stereo not drawn) as the compound, how does the LC retention time read?
Answer: 0.773 min

Question: For `CC(C)CC(O)C(=O)O` (stereo not drawn), which LC retention time is on record?
Answer: 3.94 min

Question: Which LC retention time does the source give for `NC12CC3CC(CC(C3)C1)C2` here?
Answer: 3.49 min

Question: Which LC retention time does the source give for `O=C(O)CCCCCC(=O)O` here?
Answer: 3.46 min

Question: For `Cn1c(=O)[nH]c(=O)c2[nH]cnc21`, which LC retention time is on record?
Answer: 2.17 min

Question: For `COC(=O)C1=C(C)NC(C)=C(C(=O)OC)C1c1ccccc1[N+](=O)[O-]`, which LC retention time is on record?
Answer: 5.28 min

Question: Which LC retention time does the source give for `Oc1c[nH]c2ccccc12` here?
Answer: 3.85 min

Question: Which LC retention time does the source give for `CC(=O)NC(CCC(=O)O)C(=O)O` (stereo not drawn) here?
Answer: 1.63 min

Question: With `CC12CCC(=O)C=C1CCC1C2C(O)CC2(C)C(C(=O)CO)CCC12` (stereo not drawn) as the compound, how does the LC retention time read?
Answer: 5.31 min

Question: For `CC(C(=O)O)C(=O)O`, which LC retention time is on record?
Answer: 1.87 min

Question: Which LC retention time does the source give for `O=C(O)c1cccnc1C(=O)O` here?
Answer: 1.35 min

Question: Which LC retention time does the source give for `Cc1cc2nc3[nH]c(=O)[nH]c(=O)c3nc2cc1C` here?
Answer: 4.5 min

Question: For `CNC(CCC(=O)O)C(=O)O` (stereo not drawn), which LC retention time is on record?
Answer: 0.817 min

Question: Which LC retention time does the source give for `NC(=O)Cc1ccccc1` here?
Answer: 3.38 min

Question: Which LC retention time does the source give for `CC(C)C(O)(CC(=O)O)C(=O)O` (stereo not drawn) here?
Answer: 3.35 min

Question: Which LC retention time does the source give for `CN(C)CCOC(c1ccccc1)c1ccccc1` here?
Answer: 4.37 min

Question: Which LC retention time does the source give for `NC(=O)NC(NC(N)=O)C(=O)O` here?
Answer: 0.777 min
